The values below come from publication PMC5904360, “Soluble N-Ethylmaleimide-Sensitive Factor Attachment Protein Receptor-Derived Peptides for Regulation of Mast Cell Degranulation” (Frontiers in Immunology, 2018).

For data set [1] the following is noted: topical glucocorticosteroid; cited from earlier work.
Another data set relates to NC/Nga mice. The data set can be described thus: DNCB-induced atopic dermatitis-like skin lesions. It counts as in vivo, mouse. Particulars: for ear thickness: 0.3 and 3% peptide/day or 0.1% dexamethasone/day for 4 weeks, n = 10 per group (Figure 5D). The source says: Seven-week-old NC/Nga mice were purchased from the Shizuoka Laboratory Animal Center (Shizuoka, Japan) and allowed to adapt to the environment for a week prior to use. The procedures for the induction of atopic dermatitis-like symptoms in mice using 1-chloro-2,4-dinitro-benzene (DNCB) have been well described previously ([27]). Briefly, the dorsal hair of the mice was shaved 2 days before DNCB administration. For the induction of atopic dermatitis, 1% DNCB was applied to the dorsal skin of the mice twice weekly for 7 days and then 0.2% DNCB was applied thrice weekly for 21 days. The mice were divided into the following […] treatment groups (n = 10 per group): 0.3 and 3% Vp2N/day, 0.3 and 3% Vp8N/day, 0.1% dexamethasone/day, and vehicle only, dorsally administered from 9 to 13 weeks of age. As a negative control for atopic dermatitis, NC/Nga mice that were not treated with DNCB were maintained under pathogen-free conditions. Laboratory animal breeding management was based on the “Guide for the Care and Use of Laboratory Animals,” and all experiments were approved by the Institutional Animal Care and Use Committees of Gyeonggi Institute of Science & Technology.

The next data set deals with T1, SN23-Syn4-Vp2 complex (Rattus norvegicus, UniProt O70377+P63045+Q08850).
T1 construct: Lysates of RBL-2H3 cells; endogenous in cells; host or cells: RBL-2H3 (ATCC CRL-2256)
The data set can be described thus: Co-immunoprecipitation of SNARE complexes in activated RBL-2H3 cells, anti-SNAP-23 blot. Type of data set: cell-based. The conditions noted are these: peptides added to the medium after A23187 pretreatment; IP of Vp2, blot anti-SNAP-23 (Figure 4C). As for the experimental part:
(§1) Lysates of RBL-2H3 cells (0.5–1 × 10^6 cells), which were obtained by the addition of 1 mL lysis buffer (50 mM Tris–HCl, 150 mM NaCl, 1% Triton X-100™, 1 mM EDTA, pH 7.5) supplemented with a protease inhibitor cocktail (Calbiochem®, Merck Millipore, Billerica, MA, USA), were centrifuged at 13,000 g at 4°C to remove cell debris and precleared with 100 µL protein G Sepharose® (GE Healthcare) for 2 h at 4°C. The precleared lysates were incubated with antibodies against SNARE proteins (Syn4, SNAP-23, VAMP2, and VAMP8) for 2 h at 4°C for binding, and then the antibody–antigen complexes were precipitated by incubation with a protein G slurry overnight with constant shaking. After an extensive washing step with lysis buffer, an immunoblotting analysis was performed for the precipitates. The immunoprecipitated proteins and cell lysates were electrophoresed on 12% sodium dodecyl sulfate-polyacrylamide gel electrophoresis gels and then transferred to nitrocellulose blotting membranes (GE Healthcare). After blocking the membranes in TBST (10 mM Tris–HCl, 150 mM NaCl, and 0.05% Tween® 20, pH 8) containing 0.5% BSA and 5% skim milk for 1 h at room temperature, primary anti-SNAP-23 antibody (1:1,000 dilution) in TBST supplemented with 1% BSA and 0.01% sodium azide was added and incubated at 4°C overnight. The membranes were washed with TBST, treated with a horseradish peroxidase-conjugated secondary anti-mouse IgG antibody (A4416, Sigma-Aldrich), and visualized using enhanced chemiluminescence solution for the development of a luminescent signal.

The target in another data set is T2, SN23-Syn4-Vp8 complex (Rattus norvegicus, UniProt O70377+Q08850+Q9WUF4).
T2 construct: Lysates of RBL-2H3 cells; endogenous in cells; host or cells: RBL-2H3 (ATCC CRL-2256)
T2 sequence (Q08850 1-298): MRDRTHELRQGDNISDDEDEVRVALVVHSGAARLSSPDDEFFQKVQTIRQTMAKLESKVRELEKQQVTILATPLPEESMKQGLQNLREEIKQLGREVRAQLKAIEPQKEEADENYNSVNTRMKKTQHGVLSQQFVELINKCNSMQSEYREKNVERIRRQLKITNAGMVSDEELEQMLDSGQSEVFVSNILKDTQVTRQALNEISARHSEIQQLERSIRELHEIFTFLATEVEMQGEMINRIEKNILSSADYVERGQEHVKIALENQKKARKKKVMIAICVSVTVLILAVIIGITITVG
T2 sequence (O70377 1-210): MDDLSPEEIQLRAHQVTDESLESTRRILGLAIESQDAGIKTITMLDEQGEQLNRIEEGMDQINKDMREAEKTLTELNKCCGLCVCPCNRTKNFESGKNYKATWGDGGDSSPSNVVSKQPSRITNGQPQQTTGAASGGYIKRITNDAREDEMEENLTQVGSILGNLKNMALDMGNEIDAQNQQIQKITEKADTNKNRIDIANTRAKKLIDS
T2 sequence (Q9WUF4 1-100): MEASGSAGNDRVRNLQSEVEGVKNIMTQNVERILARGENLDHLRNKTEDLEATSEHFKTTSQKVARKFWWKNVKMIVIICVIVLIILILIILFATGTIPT
The description is as above. Type of data set: cell-based. The conditions noted are these: peptides added to the medium after A23187 pretreatment; IP of Vp8, blot anti-SNAP-23 (Figure 4C). As for the experimental part:
as §1

Data set [2] deals with RBL-2H3 mast cells. The data set can be described thus: Degranulation assay, histamine release (enzyme immunoassay). Type of data set: cell-based, rat. The conditions noted are these: for inhibition of histamine release: PTD-conjugated peptide without SLO (LY294002 as positive control), DNP-IgE sensitized, DNP-BSA stimulation, no A23187 pretreatment, three independent experiments (Figure 2C); for inhibition of histamine release after A23187 pretreatment: cells pretreated with A23187, sensitized with DNP-IgE, then PTD-conjugated peptide (Figure 4B).

Data set [3] deals with RBL-2H3 mast cells. Description: Degranulation assay, β-hexosaminidase release. Type of data set: cell-based, rat. Particulars: for reduction of β-hexosaminidase release: 10 µM PTD-fused peptide without SLO (LY294002 as positive control), DNP-BSA stimulation, no A23187 pretreatment, three independent experiments (Figure 2A gray bars, 2C); for inhibition of β-hexosaminidase release after A23187 pretreatment: cells pretreated with A23187, sensitized with DNP-IgE, then PTD-conjugated peptide (Figure 4B).

Data set [4] has as its target T3, SN23-Syn4-Vp2 SNARE complex (Rattus norvegicus, UniProt O70377+P63045+Q08850).
T3 construct: Syn4 (amino acids 1–298); SNAP-23 (amino acids 1–210); full-length VAMP2 (VpF, amino acids 1–116); GST (N, cleaved yes); made in house; host or cells: Escherichia coli Rosetta(DE3)pLysS
Description: SNARE-driven membrane fusion (total lipid mixing) assay with proteoliposomes. Type of data set: biochemical. The source says:
Total RNA was obtained from RBL-2H3 cells using TRIzol® Reagent (#15596026, Invitrogen, Carlsbad, CA, USA) and served as a template for cDNA synthesis with M-MLV reverse transcriptase (M1705, Promega, Madison, WI, USA) according to the manufacturer’s protocol. The cDNAs amplified for rat Syn4, SNAP-23, VAMP2, VAMP4, VAMP7, and VAMP8 using each primer pair ([4]), were cloned into the pGEX-4T 1 vector. The mast cell SNARE proteins [Syn4 (amino acids 1–298), SNAP-23 (amino acids 1–210), full-length VAMP2 (VpF, amino acids 1–116), VAMP4 (amino acids 1–141), and VAMP8 (amino acids 1–100)] were expressed in Escherichia coli Rosetta(DE3)pLysS (#70956, Novagen, Darmstadt, Germany) and purified as glutathione-S-transferase-tagged fusion proteins as reported previously ([8]).
To prepare the unilamellar liposomes, a 50-mM lipid mixture of palmitoyl-2-oleoylphosphatidylcholine (POPC) (#850457, Avanti Polar Lipids, Alabaster, AL, USA):1,2-dioleoyl-phosphatidylserine (DOPS) (#840035, Avanti Polar Lipids) at 65:35 mol% was dried in a glass tube under a gentle stream of nitrogen gas and then exposed to a vacuum overnight. The resultant lipid film was resuspended in dialysis buffer (25 mM HEPES and 100 mM KCl, pH 7.4) by vortexing, followed by an extrusion step with polycarbonate membrane filters having a pore size of 100 nm (#610005, Avanti Polar Lipids). To prepare proteoliposomes, binary T-SNAREs, which were pre-formed by mixing Syn4 and SNAP-23 at room temperature for 60 min, were incubated with 50 mM unilamellar liposomes for 15 min at the same temperature, resulting in a 50:1 lipid/protein molar ratio ([9]).
For the preparation of V-SNARE proteoliposomes, a 10-mM premixed lipid solution [POPC:DOPS:N-(7-nitro-2-1,3-benzoxadiazol-4-yl (NBD))-phosphatidylserine (#810198, Avanti Polar Lipids):[…] (#810150, Avanti Polar Lipids) = 62:35:1.5:1.5 (molar ratio)] was used for the preparation of fluorescent liposomes in the same manner as above. The prepared liposomes were then mixed with VAMP2 for 15 min at room temperature. The liposome/protein mixture was diluted twice to bring the concentration of n-octyl glucoside (O8001, Sigma-Aldrich) below the critical micelle concentration. After overnight dialysis against 1L dialysis buffer at 4°C to remove the detergent, SM-2 bio-beads (#1523920, Bio-Rad Laboratories, Hercules, CA, USA) were added to the sample to remove any remaining n-octyl glucoside. The solution was then centrifuged at 10,000 × g to remove the protein/lipid aggregates, and the final lipid concentrations of both the T- and V-liposomes were adjusted to 1 mM with a lipid-to-protein ratio of 50:1.
A total lipid mixing assay using the T- and V-liposomes was performed as described previously with minor modifications ([8]). […] The fusion was monitored using the dequenching of NBD fluorescence signal (excitation 465 nm/emission 530 nm). After at least 80 min of fusion, the maximum NBD signal was obtained by adding 0.1% Triton X-100™. All the lipid-mixing experiments were performed at 37°C.

T3 sequence (P63045 whole entry, one chain of several, the tested form may be a part): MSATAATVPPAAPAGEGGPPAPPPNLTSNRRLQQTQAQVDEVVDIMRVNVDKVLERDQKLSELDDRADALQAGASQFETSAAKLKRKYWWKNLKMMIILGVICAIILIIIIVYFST
T1 sequence (P63045 whole entry, one chain of several): as the sequence (P63045 whole entry, one chain of several, the tested form may be a part) above

With `C[C@@H]1C[C@H]2[C@@H]3CCC4=CC(=O)C=C[C@]4(C)[C@@]3(F)[C@@H](O)C[C@]2(C)[C@@]1(O)C(=O)CO` [Dexamethasone, dexamethasone, reference compound], the side effect entry in data set [1] is “skin thinning”. In addition, in the data set on NC/Nga mice, the ear thickness entry is on record as “recovered the ear thickness to the normal range”.
In the case of `O=c1cc(N2CCOCC2)oc2c(-c3ccccc3)cccc12` [LY294002, reference compound], the “SNARE complex formation in cells (amount of SN23-Syn4-Vp2 complex)” value on SN23-Syn4-Vp2 complex was “did not inhibit”. For the same compound, the “SNARE complex formation in cells (amount of SN23-Syn4-Vp8 complex)” value on SN23-Syn4-Vp8 complex is “did not inhibit”. Further, in the data set with RBL-2H3 mast cells [2], the “inhibition of histamine release” value is “efficiently inhibited” and the “inhibition of histamine release after A23187 pretreatment” value is “efficiently inhibited”. In the data set with RBL-2H3 mast cells [3], the “reduction of β-hexosaminidase release” value is “efficiently inhibited” and the “inhibition of β-hexosaminidase release after A23187 pretreatment” value was “efficiently inhibited”.
On to “RRLQQTQAQVDEVVDIM [Vp2N, 17-mer peptide, N-terminal region of VAMP2 SNARE motif]”, for which the “SNARE complex formation in cells (amount of SN23-Syn4-Vp2 complex)” value on SN23-Syn4-Vp2 complex was “reduced”. For the same compound, in the data set with RBL-2H3 mast cells [2], the “inhibition of histamine release” value turned out to be 43% and the “inhibition of histamine release after A23187 pretreatment” value is recorded as “dramatically reduced”. For the same compound, the epidermal thickness entry in the data set with NC/Nga mice (0.3 and 3% peptide/day dorsally for 4 weeks, n = 10 per group, versus DNCB/vehicle-treated group (Figure 5C)) was “significantly reduced”. Also, in the data set on NC/Nga mice (0.3 and 3% peptide/day dorsally, 9 to 13 weeks of age, n = 10 per group, compared with 0.1% dexamethasone/day group (Figure 5B)), the “atopic dermatitis features (acanthosis, hypergranulosis, hyperkeratosis) in hematoxylin and eosin-stained sections” value is listed as “clearly alleviated to a similar extent”. Besides, the ear thickness result in the data set on NC/Nga mice was “reduced”. In addition, in the data set on RBL-2H3 mast cells [3], the “reduction of β-hexosaminidase release” value is recorded as “did not inhibit” and the “inhibition of β-hexosaminidase release after A23187 pretreatment” value is reported as “did not inhibit”. Also, the “inhibition of mast cell degranulation with versus without A23187 pretreatment” value in the data set on RBL-2H3 mast cells [3] (PTD-conjugated peptides, read-outs β-hexosaminidase and histamine (Figure 4B)) is given as “inhibited mast cell degranulation more efficiently than without pretreatment”. For the same compound, the “inhibition of membrane fusion (lipid mixing)” value in data set [4] (inhibitor applied to T-vesicles, T:V 9:1, 37°C, NBD dequenching, Vp2S/Vp8S at 10 µM, three independent experiments (Figure 3B-D)) is reported as “efficiently inhibited”. Further, the “inhibition of membrane fusion, peptide added after preincubation” value in data set [4] (peptide added after preincubation of T- and V-liposomes at 4°C overnight (partially zippered SNAREs) (Figure 4A)) is recorded as “inhibitory activities significantly diminished”. Besides, in data set [4] (peptide added before preincubation of T- and V-liposomes at 4°C overnight (Figure 4A)), the “inhibition of membrane fusion, peptide added before preincubation” value is listed as “inhibited the membrane fusion driven only by their cognate SNARE complexes”.
